Experimental data from PubChem BioAssay (NCI).
Where “and” joins values, the source holds several entries; their conditions need not be identical. Equal entries are not always repeated.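 Results reflect a 48-hour exposure of cells in 96-well plates to compound at five concentrations. The concentration for 50% growth inhibition is given as GI50. The concentration for full growth arrest is given as TGI.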

Columns and labels:
Assay in all cases: DTP human tumour cell line panel, 48 h
SF-539 CNS = system: SF-539 CNS
UO-31 renal = system: UO-31 renal
DLD-1 colon = system: DLD-1 colon
SW-620 colon = system: SW-620 colon
HOP-62 NSCLC = system: HOP-62 NSCLC
NCI-H23 lung = system: NCI-H23 lung
LOX IMVI melanoma = system: LOX IMVI melanoma
BT-549 breast = system: BT-549 breast
NCI/ADR-RES ovarian = system: NCI/ADR-RES ovarian

Row | SMILES | TGI (SF-539 CNS) | TGI (UO-31 renal) | TGI (DLD-1 colon) | TGI (SW-620 colon) | TGI (HOP-62 NSCLC) | TGI (NCI-H23 lung) | GI50 (SF-539 CNS) | GI50 (UO-31 renal) | GI50 (LOX IMVI melanoma) | TGI (LOX IMVI melanoma) | GI50 (BT-549 breast) | TGI (BT-549 breast) | GI50 (SW-620 colon) | GI50 (HOP-62 NSCLC) | GI50 (NCI-H23 lung) | GI50 (NCI/ADR-RES ovarian) | TGI (NCI/ADR-RES ovarian)
1 | Cn1cc(C(=O)/C(Cl)=C(\Cl)C(=O)O)c2ccccc21 | > 100 µM | > 100 µM | > 100 µM | > 100 µM | > 100 µM | > 100 µM | – | – | – | – | – | – | – | – | – | – | –
2 | Nc1c(C(=O)Nc2cccc3ccccc23)sc2nc3c(cc12)CCCCC3 | > 50 µM | > 50 µM | – | > 50 µM | > 50 µM | > 50 µM | 0.458 µM | 1.91 µM | 0.909 µM | > 50 µM | 0.549 µM | 3.75 µM | 0.538 µM | 2.63 µM | 1.78 µM | 0.402 µM | > 50 µM
3 | C/C(=C\c1ccn(-c2ccc(N)cc2C(F)(F)F)n1)[C@@H]1C[C@@H]2O[C@]2(C)CCC[C@H](C)[C@H](O)[C@@H](C)C(=O)C(C)(C)[C@@H](O)CC(=O)O1 | 1.86 µM | > 11.1 µM | – | > 11.1 µM | 9.98 µM | > 11.1 µM | 0.305 µM | 0.954 µM | 0.476 µM | > 11.1 µM | 0.553 µM | > 11.1 µM | 0.301 µM | 0.49 µM | 0.548 µM | 4.38 µM | > 11.1 µM
4 | Cc1cc(S(=O)(=O)/N=C(\N)n2nc(C)c(C)c2C)c(SCc2ccccc2)cc1Cl | > 100 µM | > 100 µM | – | > 100 µM | > 100 µM | > 100 µM | > 100 µM | 4.57 µM | > 100 µM | > 100 µM | > 100 µM | > 100 µM | 72.7 µM | > 100 µM | 7.04 µM | 9.22 µM | > 100 µM
5 | O=c1[nH]cnc2c1nnn2[C@@H]1O[C@H](CO)[C@@H](O)[C@H]1O | > 100 µM | > 100 µM | – | > 100 µM | > 100 µM | > 100 µM | 7.66 µM | 4.46 µM | 2.14 µM | > 100 µM | 9.81 µM | > 100 µM | 3.01 µM | 9.22 µM | 6.65 µM | 2.27 µM | > 100 µM
6 | O=C(CC1(O)C(=O)Nc2ccccc21)c1ccc(O)cc1O (stereo not given) | > 100 µM | > 100 µM | > 100 µM | > 100 µM | > 100 µM | > 100 µM | – | – | – | > 100 µM | – | – | – | – | – | – | –
7 | c1cncc(-c2cc(-c3cc(-c4cccnc4)n[nH]3)[nH]n2)c1 | > 100 µM | > 100 µM | – | > 100 µM | > 100 µM | > 100 µM | – | – | – | > 100 µM | – | > 100 µM | – | – | – | – | > 100 µM
8 | Fc1ccc(Nc2ccc3cc(OCCCN4CCOCC4)ccc3n2)cc1F | 18.7 µM | 6.84 µM | – | 4.4 µM | 45.9 µM | > 100 µM | 3.22 µM | 2.24 µM | 1.6 µM | 3.09 µM | 7.28 µM | 52.1 µM | 2.12 µM | 4.54 µM | 3.93 µM | 4.45 µM | > 100 µM
9 | COc1cc(-c2ccc(-[n+]3nc(-c4ccc([N+](=O)[O-])cc4)nn3-c3ccc([N+](=O)[O-])cc3)c(OC)c2)ccc1-[n+]1nc(-c2ccc([N+](=O)[O-])cc2)nn1-c1ccc([N+](=O)[O-])cc1 | 3.97 µM | 27.8 µM | – | 25.1 µM | 4.54 µM | 47.1 µM | 1.8 µM | 6.28 µM | 0.347 µM | 10.1 µM | 6.21 µM | 70.8 µM | 2.99 µM | 1.84 µM | 3.76 µM | 26.9 µM | > 100 µM
10 | N#C/C(=C\c1ccc(Cl)cc1)n1nnc2cc(F)c(F)cc21 | 3.77 µM | 2.88 µM | – | 3.46 µM | 6.32 µM | 3.71 µM | 1.97 µM | 1.55 µM | 1.57 µM | 2.99 µM | 1.74 µM | 3.43 µM | 1.72 µM | 2.29 µM | 1.73 µM | 2.36 µM | 7.7 µM
11 | COc1cc(N)ccc1Nc1c2ccccc2nc2ccccc12 | 26.5 µM | 22.8 µM | – | 13.5 µM | 27.9 µM | 45.2 µM | 12.1 µM | 5.33 µM | 5.27 µM | 35.4 µM | 15.3 µM | 32.4 µM | 3.55 µM | 9.98 µM | 15 µM | 15.4 µM | 45.3 µM
12 | O=C1CN2CCC1C/C2=C\c1ccnc2c(Cl)cccc12 (stereo not given) | > 100 µM | > 100 µM | – | > 100 µM | > 100 µM | > 100 µM | > 100 µM | 17.7 µM | 52.2 µM | > 100 µM | > 100 µM | > 100 µM | > 100 µM | > 100 µM | 57 µM | 39.2 µM | > 100 µM
13 | Cc1cc(Nc2ncc(Cl)c(Nc3ccccc3S(=O)(=O)C(C)C)n2)c(OC(C)C)cc1C1CCNCC1 | 2.99 µM | 2.63 µM and 2.36 µM | – | 2.61 µM | 2.75 µM | 3.07 µM | 1.62 µM | 1.29 µM and 1.14 µM | 1.36 µM | 2.71 µM | 4.47 µM | – | 0.776 µM | 1.4 µM | 1.51 µM | 1.52 µM | 3.4 µM
14 | CNC(=O)c1ccc(Nc2nc(OC3CCCC3)c3c(-c4ccc5nc(C)oc5c4)c[nH]c3n2)c(OC)c1 | > 100 µM | > 100 µM | – | > 100 µM | > 100 µM | > 100 µM | 0.332 µM | 2.97 µM | 0.381 µM | > 100 µM | 2.04 µM | > 100 µM | 0.121 µM | > 100 µM | 4.55 µM | 1.71 µM | > 100 µM
15 | CO/C=C/c1cc2c(cc1C(OC)OC)OCO2 | > 100 µM | > 100 µM | > 100 µM | > 100 µM | 75 µM | > 100 µM | – | – | – | – | – | – | – | – | – | – | –
16 | Nc1ccn(C2OC(COP(=O)(O)O)C(O)C2O)c(=O)n1 (stereo not given) | > 30.2 µM | > 100 µM | – | > 100 µM | > 100 µM | > 100 µM | – | – | – | > 100 µM | – | > 100 µM | – | – | – | – | > 100 µM
